Data set [1] concerns SW620 (colorectal adenocarcinoma, metastatic). Description: MTT proliferation assay, SW620 cells. The class given is cell-based, human. Conditions: read-out: IC50 (50% growth inhibition) SW620. The protocol:
(§1) This study was set out to examine the anti-proliferative effects of coumarin derivates (3–18) on human tumor cell lines and normal (diploid) human fibroblasts.
(§2) Cell culturing: Human cell lines HeLa (cervical carcinoma), SW620 (colorectal adenocarcinoma, metastatic), MCF-7 (breast epithelial adenocarcinoma, metastatic), HepG2 (hepatocellular carcinoma) and BJ (normal diploid human fibroblasts) were cultured as monolayers and maintained in Dulbecco’s modified Eagle medium (DMEM) supplemented with 10% fetal bovine serum (FBS), 2 mM L-glutamine, 100 U/mL penicillin and 100 μg/mL streptomycin in a humidified atmosphere with 5% CO2 at 37 °C.
(§3) Proliferation assay: The cell lines were inoculated into a series of standard 96-well microtiter plates on day 0 at seeding density of 3,000–6,000 cells per well depending upon their specific doubling times. Freshly prepared dilutions of test compounds in culture medium in the concentration range 1 × 10^−8–1 × 10^−4 M were added to the microtiter plates, and the cells were grown for further 72 h. The solvent (DMSO) was also tested for its potential inhibitory activity by adjusting its concentration to the values used for the preparation of the working concentrations (DMSO concentration never exceeded 0.1%). After 72 h of incubation, the cell growth rate was evaluated by performing the MTT assay: experimentally determined absorbance values were transformed into the cell percentage growth (PG) using the formulas proposed by NIH and described previously. This method directly relies on control cells behaving normally at the day of assay commencement because it compares the growth of treated cells with that of untreated cells in control wells on the same plate. The results are therefore a percentile difference from the calculated expected value. […] If, however, all of the tested concentrations produce PGs exceeding the respective reference level of effect (e.g., PG value of 50) for a given cell line, the highest tested concentration is assigned as the default value (in the screening data report that default value is preceded by a “>” sign). Each test point was performed in quadruplicate in three individual experiments. The results were statistically analyzed (ANOVA, Tukey post-hoc test at p < 0.05).
For orientation: Tetrazolium assays rely on reduction of a dye to a coloured formazan, in cell work by metabolically active cells.

Data set [2] has as its system BJ (normal diploid human fibroblasts). In words: MTT proliferation assay, BJ normal fibroblasts. The class given is cell-based. The following applies: 72 h, read-out: IC50 (50% growth inhibition) BJ. The protocol:
as §1, §2, §3

For data set [3], the system named is HeLa (cervical carcinoma). In words: MTT proliferation assay, HeLa cells. The class given is cell-based, human. Conditions: 72 h, read-out: IC50 (50% growth inhibition) HeLa. The protocol: as §1, §2, §3
Data set [4] relates to MCF-7 (breast epithelial adenocarcinoma, metastatic). In words: MTT proliferation assay, MCF-7 cells. The class given is cell-based, human. The following applies: read-out: IC50 (50% growth inhibition) MCF-7. The protocol:
as §1, §2, §3

Data set [5] deals with HepG2 (hepatocellular carcinoma). In words: MTT proliferation assay, HepG2 cells. The class given is cell-based, human. Conditions: 72 h, read-out: IC50 (50% growth inhibition) HepG2. How it is done:
as §1, §2, §3

Values joined by “and” are separate entries in the source; they are usually repeats but may differ in a detail not shown here. Equal values may be shown once. Read-outs that look alike come from different tables or passages of the source.

Turning to “1-((7-Methoxy-2-oxo-2H-chromen-4-yl)methyl)-2-amino-6-chloropurine [Compound 12]”, the IC50 in data set [1] (72 h), in data set [2], in data set [3], in data set [4] (72 h) and in data set [5] was more than 100 µM in each case.
Take `COc1ccc(C(CCO)Cn2cnc(CO)n2)c(O)c1` (stereo not drawn) [Compound 17, ethyl 1-(4-hydroxy-2-(2-hydroxy-4-methoxyphenyl)butyl)-1,2,4-triazole-3-hydroxymethyl]: the IC50 – broadly, the concentration that gives 50% inhibition – in data set [1] (Homo sapiens, SW-620, 72 h) was more than 100 µM; in data set [2] (Homo sapiens, Fibroblast), more than 100 µM; in data set [3] (Homo sapiens, HeLa), more than 100 µM; in data set [4] (Homo sapiens, MCF7, 72 h) it was more than 100 µM; in data set [5] (Homo sapiens), more than 100 µM.
Consider `N#Cc1ncn(Cc2cc(=O)oc3cc(O)ccc23)c1C#N` [Compound 7, 1-((7-Hydroxy-2-oxo-2H-chromen-4-yl)methyl)-4,5-dicyanoimidazole], for which the melting point (usually the temperature, or range, at which the solid turns liquid) lay in the range of 238 to 240 °C. Besides, the IC50 in data set [1] (Homo sapiens, SW-620, 72 h) is more than 100 µM. Moreover, the IC50 in data set [2] (Homo sapiens, Fibroblast) is more than 100 µM. The IC50 in data set [3] (Homo sapiens, HeLa) was more than 100 µM. In data set [4] (Homo sapiens, MCF7, 72 h), the IC50 was more than 100 µM. The IC50 in data set [5] (Homo sapiens) is more than 100 µM.
As to `COC(=O)c1ncn(Cc2cc(=O)oc3cc(O)ccc23)n1` [Compound 3, Methyl 1-((7-hydroxy-2-oxo-2H-chromen-4-yl)methyl)-1,2,4-triazole-3-carboxylate], the melting point fell in the range of 216 to 218 °C. The IC50 in data set [1] (Homo sapiens, SW-620, 72 h) was more than 100 µM. In addition, in data set [2] (Homo sapiens, Fibroblast), the IC50 was more than 100 µM. For the same compound, the IC50 in data set [3] (Homo sapiens, HeLa) is more than 100 µM. Further, in data set [4] (Homo sapiens, MCF7, 72 h), the concentration for half-maximal inhibition (IC50) was more than 100 µM. The IC50 in data set [5] (Homo sapiens) is more than 100 µM.
For the compound “1-((7-Methoxy-2-oxo-2H-chromen-4-yl)methyl)guanine [Compound 13]”, the IC50 in data set [1] (72 h), in data set [2], in data set [3], in data set [4] (72 h) and in data set [5] was more than 100 µM each time.
For the compound “1-((7-Hydroxy-2-oxo-2H-chromen-4-yl)methyl)-6-chloropurine [Compound 8]”, the IC50 in data set [1] (72 h), in data set [2], in data set [3], in data set [4] (72 h) and in data set [5] was more than 100 µM each time.
For “1-((7-Hydroxy-2-oxo-2H-chromen-4-yl)methyl)-2-amino-6-chloropurine [Compound 10]”, the IC50 is 35 µM and 35.4 µM in data set [1] (72 h); more than 100 µM in data set [2]; 34 ± 8.4 µM in data set [3]; more than 100 µM in data set [4] (72 h); 25 µM and 25.6 µM in data set [5].
As to `COc1ccc(C(CCO)Cn2cnc(C(N)=O)n2)c(O)c1` (stereo not drawn) [Compound 15, 1-(4-Hydroxy-2-(2-hydroxy-4-methoxyphenyl)butyl)-1,2,4-triazole-3-carboxamide], the IC50 in data set [1] (Homo sapiens, SW-620, 72 h) was more than 100 µM; in data set [2] (Homo sapiens, Fibroblast) it was more than 100 µM; in data set [3] (Homo sapiens, HeLa), more than 100 µM; in data set [4] (Homo sapiens, MCF7, 72 h), more than 100 µM; in data set [5] (Homo sapiens), more than 100 µM.
As to `COc1ccc(C(CCO)Cn2cncn2)c(O)c1` (stereo not drawn) [Compound 16, 1-(4-hydroxy-2-(2-hydroxy-4-methoxyphenyl)butyl)-1,2,4-triazole], the IC50 in data set [1] (Homo sapiens, SW-620, 72 h) was more than 100 µM; in data set [2] (Homo sapiens, Fibroblast), more than 100 µM; in data set [3] (Homo sapiens, HeLa), more than 100 µM; in data set [4] (Homo sapiens, MCF7, 72 h) it was more than 100 µM; in data set [5] (Homo sapiens), more than 100 µM.
Turning to “1-((7-Hydroxy-2-oxo-2H-chromen-4-yl)methyl)-2-aminopurine [Compound 11]”, the IC50 in data set [1] (72 h), in data set [2], in data set [3], in data set [4] (72 h) and in data set [5] was more than 100 µM each time.
On to `NC(=O)c1ncn(Cc2cc(=O)oc3cc(O)ccc23)n1` [Compound 4, 1-((7-Hydroxy-2-oxo-2H-chromen-4-yl)methyl)-1,2,4-triazole-3-carboxamide], for which the IC50 in data set [1] (Homo sapiens, SW-620, 72 h) is more than 100 µM; in data set [2] (Homo sapiens, Fibroblast), more than 100 µM; in data set [3] (Homo sapiens, HeLa), more than 100 µM; in data set [4] (Homo sapiens, MCF7, 72 h), more than 100 µM; in data set [5] (Homo sapiens), more than 100 µM.
For `CCOC(=O)c1ncn(CC(CCO)c2ccc(OC)cc2O)n1` (stereo not drawn) [Compound 14, Ethyl 1-(4-hydroxy-2-(2-hydroxy-4-methoxyphenyl)butyl)-1,2,4-triazole-3-carboxylate], the IC50 was more than 100 µM in data set [1] (Homo sapiens, SW-620, 72 h); more than 100 µM in data set [2] (Homo sapiens, Fibroblast); more than 100 µM in data set [3] (Homo sapiens, HeLa); more than 100 µM in data set [4] (Homo sapiens, MCF7, 72 h); more than 100 µM in data set [5] (Homo sapiens).
Regarding `COc1ccc2c(Cn3cnc(C(N)=O)n3)cc(=O)oc2c1` [Compound 6, 1-((7-Methoxy-2-oxo-2H-chromen-4-yl)methyl)-1,2,4-triazole-3-carboxamide], the 50% inhibitory concentration (IC50) in data set [1] (Homo sapiens, SW-620, 72 h) is more than 100 µM; in data set [2] (Homo sapiens, Fibroblast), more than 100 µM; in data set [3], 35.5 ± 13.5 µM; in data set [3] (Homo sapiens, HeLa), 35 µM; in data set [4] (Homo sapiens, MCF7, 72 h) it was more than 100 µM; in data set [5] (Homo sapiens), more than 100 µM.
`COC(=O)c1ncn(Cc2cc(=O)oc3cc(OC)ccc23)n1` [Compound 5, Methyl 1-((7-Methoxy-2-oxo-2H-chromen-4-yl)methyl)-1,2,4-triazole-3-carboxylate]: the melting point was 234 to 237 °C. Also, in data set [1] (Homo sapiens, SW-620, 72 h), the IC50 is more than 100 µM. The IC50 in data set [2] (Homo sapiens, Fibroblast) is more than 100 µM. Also, in data set [3] (Homo sapiens, HeLa), the IC50 is more than 100 µM. For the same compound, the IC50 in data set [4] (Homo sapiens, MCF7, 72 h) was more than 100 µM. The IC50 in data set [5] (Homo sapiens) was more than 100 µM.
Turning to “1-(4-Hydroxy-2-(2-hydroxy-4-methoxyphenyl)butyl)guanine [Compound 18]”, the IC50 in data set [1] (72 h), in data set [2], in data set [3], in data set [4] (72 h) and in data set [5] was more than 100 µM each time.
As to “1-((7-Hydroxy-2-oxo-2H-chromen-4-yl)methyl)purine [Compound 9]”, the IC50 in data set [1] (72 h), in data set [2], in data set [3], in data set [4] (72 h) and in data set [5] was more than 100 µM throughout.
